Test results from paper PMC7011955, “Synthesis and biological evaluation of certain hydrazonoindolin-2-one derivatives as new potent anti-proliferative agents” (Journal of Enzyme Inhibition and Medicinal Chemistry, 2018).
“Also recorded” adds a separate entry of the source. Read-outs that look alike come from different tables or passages of the source.

Columns and labels:
[1] = tested on: phosphorylated retinoblastoma (Rb) protein in A-549 cells; assay: Immunofluorescent imaging of phosphorylated Rb protein; assay type: cell-based, human; settings: for IC50: Homo sapiens, A549
Description: (§1) Cell cycle effects of the synthesised compounds 7b and 10e were determined adopting the reported procedures[14]^,[15].
(§2) In this study, cancer cells derived from lung adenocarcinoma (A-549) were used to evaluate the effects of compounds 7b and 10e on various aspects of the cell cycle progression. Both immunofluorescent imaging of phosphorylated Rb protein and total DNA content of each cell were explored to determine the activity of compounds 7b and 10e over a range of concentrations less than 100 nM to 50 µM (Figures 3–5).

A-549 cells [2] = assay: Cell cycle distribution by DNA content; assay type: cell-based, human
Description: as §1, §2
Figure 3. Effects on number and cell cycle distribution. A-549 cells were treated with dose curve. Compound 7b (left) or 10e (right). Cell number per cell cycle was determined by DNA content by DAPI fluorescent labeling and imaging cytometry following 48 h treatment.

[3] = tested on: NCI-H69AR cell line (expresses ABCC1 efflux pump); assay: Growth inhibition of multidrug resistant lung cancer cell line; assay type: cell-based
Description: (§3) The anti-proliferative activity of the title compounds 3a-e, 5a-e, 7a-c, and 10a-l towards cancer cell lines, normal cell lines, and multidrug-resistant lung cancer NCI-H69AR cell line was determined using CellTiter-Glo™ Luminescent cell viability assay according to the previously published procedures[14]^,[15].
The anti-proliferative activity of compounds 7b and 10e was evaluated towards multidrug resistant lung cancer cell line (NCI-H69AR), which expresses the ABCC1 efflux pump protein. […] Furthermore, the H69AR cells manifested a lesser degree of resistance to the reference drug, Sunitinib (1.9-fold less sensitive).

[4] = tested on: IEC-6, MCF-10A, Swiss-3t3 vs A-549 cell lines; assay: Mean tumor selectivity index, non-tumorigenic lines vs A-549; assay type: cell-based; settings: non-tumorigenic IEC-6, MCF-10A
Excerpt: (§4) The cell growth inhibitory activity of compounds 7b and 10e was examined towards three non-tumorigenic cell lines to estimate their selectivity for tumor cells. A-549 human non-small cell lung cancer (NSCLC) cell line was included in the assay for comparison. […] IEC-6 cells derived from rat intestine show morphologic and karyotypic features of normal intestinal epithelial cells. Fibroblasts derived from embryonic tissue from mice (Swiss-3t3) are both non-tumorigenic and contact inhibited. Compounds 7b and 10e were tested quadruplicate at maximum concentrations of 25 µM, with subsequent 10 serially diluted concentrations.

[5] = tested on: breast cancer ZR-75 cell line; assay: CellTiter-Glo Luminescent cell viability assay, anti-proliferative activity, ZR-75; assay type: cell-based; settings: Homo sapiens, ZR75; 30 µM single concentration, quadruplicate; read-out: Growth inhibition % ZR-75
Description: as §3
(§5) The cancer cell growth inhibitory activity of the synthesised 25 compounds 3a-e, 5a-e, 7a-c, and 10a-l was evaluated in vitro towards three human cancer cell lines, namely lung cancer A-549, human colon cancer HT-29, and breast cancer ZR-75 cell lines using CellTiter-Glo™ Luminescent cell viability assay. Sunitinib was included in this assay as a reference drug.
(§6) The prepared hydrazonoindolin-2-ones were first evaluated at preliminary anti-proliferative assay against the three cancer cell lines in quadruplicate at a single concentration of 30 µM. The data presented as percentage growth inhibition (GI%) caused by the test compounds (Table 1).

[6] = tested on: colon cancer HT-29 cell line; assay: CellTiter-Glo Luminescent cell viability assay, anti-proliferative activity, HT-29; assay type: cell-based; settings: Homo sapiens, mean ± SD of four separate experiments
[7] = tested on: colon cancer HT-29 cell line; assay: as above; assay type: cell-based, human; settings: Homo sapiens, HT-29; 30 µM single concentration, quadruplicate; read-out: Growth inhibition % HT-29
Description: as §3, §5, §6

[8] = tested on: lung cancer A-549 cell line; assay: CellTiter-Glo Luminescent cell viability assay, anti-proliferative activity, A-549; assay type: cell-based, human; settings: for inhibition at 30 µM: A549, 30 µM single concentration, read-out: Growth inhibition % A-549
Description: as §3, §5, §6

[9] = tested on: A-549, ZR-75 and HT-29 cell lines; assay: Average anti-proliferative activity over the three cancer cell lines; assay type: cell-based, human; settings: average over A-549, ZR-75, HT-29; for inhibition at 30 µM / IC50: Homo sapiens; for inhibition at 30 µM: read-out: Average growth inhibition %; for inhibition at 30 µM / Average growth inhibition %: 30 µM
Description: as §3, §5, §6

[10] = tested on: breast cancer ZR-75 cell line; assay: CellTiter-Glo Luminescent cell viability assay, anti-proliferative activity, ZR-75; assay type: cell-based, human
Intestine IEC-6 cells = assay: Cell growth inhibition, non-tumorigenic IEC-6; assay type: cell-based; settings: Rattus norvegicus, maximum 25 µM, quadruplicate
Description: as §3, §4

[11] = tested on: Fibroblast Swiss-3t3 cells; assay: Cell growth inhibition, non-tumorigenic Swiss-3t3; assay type: cell-based, mice; settings: Mus musculus, maximum 25 µM, quadruplicate
Description: as §3, §4

Breast MCF-10A cells = assay: Cell growth inhibition, non-tumorigenic MCF-10A; assay type: cell-based; settings: Homo sapiens, maximum 25 µM, quadruplicate
Description: as §3, §4

A-549 cells [12] = assay: Reduction in total cell number, DAPI labeling and imaging cytometry; assay type: cell-based; settings: Homo sapiens, A549
Description: as §1, §2
Figure 3. Effects on number and cell cycle distribution. A-549 cells were treated with dose curve. Compound 7b (left) or 10e (right). […]

[13] = A-549, 24 h treatment, read-out: IC50 for reduction in Rb phosphorylation, 24 h
[14] = Homo sapiens, A549, mean ± SD of four separate experiments, read-out: IC50 A-549
[15] = Homo sapiens, A549, selectivity assay, maximum 25 µM, quadruplicate, read-out: IC50 NSCLC A-549
[16] = Homo sapiens, A549, sensitive line in comparison with resistant NCI-H69AR, read-out: IC50 Sensitive A-549
[17] = Homo sapiens, ZR75, mean ± SD of four separate experiments

SMILES	IC50 [6] [µM]	IC50 [8, 14] [µM]	melting point [°C]	IC50 [10, 17] [µM]	IC50 [9] [µM]	inhibition at 30 µM [5] [%]	inhibition at 30 µM [7] [%]	inhibition at 30 µM ([8]; Homo sapiens, quadruplicate) [%]	inhibition at 30 µM [9] [%]	Average growth inhibition % [9] [%]	also measured
CCN(CC)CCNC(=O)c1c(C)[nH]c(/C=C2\C(=O)Nc3ccc(F)cc32)c1C [Sunitinib, reference compound]	5.87 ± 0.3	10.1 ± 0.8	–	–	–	90.7 ± 4.5	85.7 ± 2.7	59.5 ± 2.3	78.7	–	IC50 [1, 13]: 3.18 ± 0.07 µM; Cell cycle effects (A-549 cells [2]): G1 decreased and G2/M-phases increased; IC50 [3]: 5.8 ± 0.52 µM; Mean tumor selectivity [4]: 1.4; IC50 [8, 15]: 3.06 ± 0.9 µM; IC50 [8, 16]: 3.1 ± 0.9 µM
O=C1Nc2ccc(Cl)cc2C1=NN=Cc1ccn[nH]1 [Compound 7b, 3-(((1H-pyrazol-5-yl)methylene)hydrazono)-5-chloroindolin-2-one]	2.75 ± 0.31	2.29 ± 0.21	> 300	1.37 ± 0.23	2.14	82.3 ± 15.2	94.9 ± 1.8	91.5 ± 1.3	> 80	89.6	levels of phosphorylated Rb protein ([1]; A-549, less than 100 nM to 50 µM): significantly reduced in a dose-dependent manner; IC50 [1, 13]: 12.1 ± 0.6 µM; IC50 ([1]; A-549, 48 h treatment, read-out: IC50 for reduction in Rb phosphorylation, 48 h): 13.6 ± 0.6 µM; Cell cycle effects (A-549 cells [2]): decrease in the percentage of cells in the G1 phase of the cell cycle with corresponding increase in the G2/M-phases; also recorded: G1 decreased and G2/M-phases increased; IC50 [3]: 16 µM; Mean tumor selectivity [4]: 1.6; IC50 (Intestine IEC-6 cells): 8.7 ± 4.32 µM; IC50 [11]: 6.85 ± 0.76 µM; IC50 [8, 15]: 3.84 ± 0.67 µM; IC50 [8, 16]: 3.8 ± 0.67 µM; IC50 (Breast MCF-10A cells): 3.42 ± 0.45 µM; IC50 (A-549 cells [12]; A-549, 24 h treatment, read-out: IC50 for reductions in the total cell number, 24 h): 12.7 ± 13.6 µM; IC50 (A-549 cells [12]; A-549, 48 h treatment, read-out: IC50 for reductions in the total cell number, 48 h): 8.08 ± 0.95 µM
Cc1ccc(-c2csc(NN=C3C(=O)Nc4ccccc43)n2)cc1 [Compound 10b, 3–(2-(4–(4-Tolyl)thiazol-2-yl)hydrazono)indolin-2-one]	> 30	> 30	284 to 286	24.6	> 28.2	62.1 ± 10.7	33.9 ± 21.2	24.4 ± 14.1	40.1	–	IC50 ([8]; mean ± SD of four separate experiments, read-out: IC50 A-549): > 30 µM
COC(=O)c1ccc(C=NN=C2C(=O)Nc3ccccc32)cc1 [Compound 3b, Methyl 4-(((2-oxoindolin-3-ylidene)hydrazono)methyl)benzoate]	21.1 ± 1.86	11.2 ± 1.45	225 to 227	9.72 ± 2.52	14	80.6 ± 7	92.3 ± 3.7	68.1 ± 2.8	> 80	80.3	–

Continued, in another order:

IC50 [6] [µM]	IC50 [8, 14] [µM]	melting point [°C]	IC50 [10, 17] [µM]	IC50 [9] [µM]	SMILES	inhibition at 30 µM [5] [%]	inhibition at 30 µM [7] [%]	inhibition at 30 µM ([8]; Homo sapiens, quadruplicate) [%]	inhibition at 30 µM [9] [%]	Average growth inhibition % [9] [%]	also measured
> 30	22.9 ± 3.51	283 to 285	> 30	> 27.7	O=C1Nc2ccccc2C1=NN=Cc1ccn[nH]1 [Compound 7a, 3-(((1H-pyrazol-5-yl)methylene)hydrazono)indolin-2-one]	60.1 ± 5.8	60.8 ± 13.1	8.2 ± 15.1	43	–	IC50 ([10]; mean ± SD of four separate experiments): > 30 µM
15.2 ± 1.1	12.8 ± 1.4	> 300	10.9 ± 2.81	13	Cc1ccc(-c2csc(NN=C3C(=O)Nc4ccc(Br)cc43)n2)cc1 [Compound 10j, 5-Bromo-3–(2-(4–(4-tolyl)thiazol-2-yl)hydrazono)indolin-2-one]	73.1 ± 3.5	90.1 ± 5.3	85.9 ± 9.1	> 80	83.0	–
6.15 ± 0.51	4.87 ± 0.49	293 to 295	2.09 ± 0.12	4.37	O=C1Nc2ccc(Cl)cc2C1=NN=Cc1nccs1 [Compound 5b, 5-Chloro-3-((thiazol-2-ylmethylene)hydrazono)indolin-2-one]	95 ± 8.2	96.2 ± 4.5	93.6 ± 5.4	94.9	–	–
> 30	17.2 ± 2.56	295 to 297	4.89	> 17.4	O=C1Nc2ccccc2C1=NNc1nc(-c2ccc(Cl)cc2)cs1 [Compound 10c, 3–(2-(4–(4-Chlorophenyl)thiazol-2-yl)hydrazono)indolin-2-one]	77.1 ± 10.9	85.4 ± 7	31.4 ± 9.1	64.6	–	–
8.49 ± 1.01	6.07 ± 0.9	266 to 268	4.2 ± 0.57	6.25	COC(=O)c1ccc(C=NN=C2C(=O)Nc3ccc(Cl)cc32)cc1 [Compound 3c, Methyl 4-(((5-chloro-2-oxoindolin-3-ylidene)hydrazono)methyl)benzoate]	98.9 ± 2.1	95.9 ± 4.7	93.5 ± 2.8	> 80	96.1	–
